“Also recorded” adds a separate entry of the source.
What was measured:
[1] = cited from earlier work
[2] = cited from earlier work; remark: listed apart in the source
[3] = tested on: genes involved in the pathophysiology of AAA; experiment: Drug inhibition effect on differentially expressed genes, overall; type: in vivo, ApoE−/− mice
Method: (§1) ApoE−/− mice used in this study were divided into different pretreatment groups: 1) Fluvastatin-MF; 2) Doxycycline-MD; 3) Irbesartan-MI; 4) Telmisartan-MT; 5) Control (water) and fed medicated chow or medicated drinking water 1 week prior to pump implantation. AngII (1000 ng·kg^−1 of body weight·min^−1) was infused subcutaneously via Alzet mini-osmotic pumps for 28 days. All mice were maintained on the medicated chow (MI & MT) or medicated drinking water (MF & MD) treatments which were delivered daily for a total of 28 days following pump implantation.
(§2) In order to determine the effect of the various treatments on the progressive enlargement of the experimental AAAs the mice were followed with high frequency trans-abdominal ultrasound. Maximum aortic diameter was measured and recorded prior to pump implantation and then at 3, 7, 14, 21, and 28 days. All mice were sacrificed 28 days after pump implantation. Aortae were harvested and subjected to either histological analysis (Elastic Masson trichome, MAC2, CD31 and TUNEL staining) and analysis of mural gene expression. Plasma drug concentrations of experimental compounds were quantified on the day of sacrifice using high performance liquid chromatography (HPLC).
(§3) Total RNA was extracted from homogenized aortas using the Qiazol lysis reagent and RNeasy Lipid Tissue Mini kit. DNAse treatment was included in the procedure. RNA concentration was determined utilizing the Quant iT RNA assay kit. Complimentary deoxyribonucleic acid (cDNA) was synthesized from 1 μg RNA using High reverse cDNA transcription kit. Briefly the reaction tubes containing RNA, reverse transcriptase, buffer, RNAse inhibitor, and nuclease free water were incubated at 25° C. for 10 minutes to allow annealing. Reverse transcription was performed at 37° C. for 120 min, followed by a 5 sec incubation at 85° C. to inactivate the reverse transcriptase enzyme. The cDNA samples were cooled at 4° C. and stored at −80° C. until further use.
(§4) Real time PCR was performed using a 384-well Taqman low density array (TLDA) card. Each sample specific PCR mix contained 50 ng of total RNA converted to cDNA. The PCR reaction for Taqman assays contained 50 μl Master Mix (Taqman Universal PCR Master Mix,) and 50 ul of cDNA and RNAase free water. Assays were performed to include appropriate controls (no template control). The RT-PCR protocol included an initial step of 50° C. (2 minutes) […], denaturation by a hot start at 95° C. for 10 min, followed by 40 cycles of a 2 step program (denaturation at 95° C. for 15 secs for primer annealing/extension at 60° C. for 1 min). Fluorescence data was collected at 60° C. Fluorescence was quantified with ABI PRISM 7900HT Sequence Detection System. To verify amplification of a specific target cDNA, data generated was analyzed using SDS 2.2.3 software (Sequence Detection System Software, Applied Biosystems). For all amplification plots, the baseline data were set with the automatic CT function available with SDS 2.2.3 calculating the optimal baseline range and threshold value by using the AutoCT algorithm. According to the manufacturer's instruction, a CT value of ≧39 corresponds to nonspecific amplification marking the limits of detection. For endogenous control GAPDH was normalized to B2M. For relative quantification (RQ), pooled ApoE−/− control was used as the calibrator (with expression equal to 1).

aneurysm = experiment: Aneurysm incidence over time, ApoE−/−+Ang II AAA model; type: in vivo, ApoE−/− mice; details: aneurysm = dissection or more than 50% increase in diameter; versus doxycycline and saline control
Method: as §1, §2
Aneurysm was defined as either the presence of dissection or more than 50% increase in diameter.

AAA = experiment: Aortic diameter by ultrasonography, ApoE−/−+Ang II AAA model; type: in vivo, ApoE−/− mice; details: pretreatment 1 week before Ang II infusion, followed to 28 days; versus control and doxycycline
From the text: The ApoE^−/−+Ang II AAA model is well established and supported by current scientific literature. Mice genetically predisposed to hypercholesterolemia develop aneurysms when treated with angiotensin II. Aneurysms generally develop within the first week after pump implantation and share many important pathologic characteristics with human AAA disease. ApoE−/− mice used in this study were divided into different pretreatment groups: 1) Fluvastatin-MF; 2) Doxycycline-MD; 3) Irbesartan-MI; 4) Telmisartan-MT; 5) Control (water) and fed medicated chow or medicated drinking water 1 week prior to pump implantation. AngII (1000 ng·kg^−1 of body weight·min^−1) was infused subcutaneously via Alzet mini-osmotic pumps for 28 days. All mice were maintained on the medicated chow (MI & MT) or medicated drinking water (MF & MD) treatments which were delivered daily for a total of 28 days following pump implantation. In order to determine the effect of the various treatments on the progressive enlargement of the experimental AAAs the mice were followed with high frequency trans-abdominal ultrasound. Maximum aortic diameter was measured and recorded prior to pump implantation and then at 3, 7, 14, 21, and 28 days. All mice were sacrificed 28 days after pump implantation. Aortae were harvested and subjected to either histological analysis (Elastic Masson trichome, MAC2, CD31 and TUNEL staining) and analysis of mural gene expression. Plasma drug concentrations of experimental compounds were quantified on the day of sacrifice using high performance liquid chromatography (HPLC).

Cathepsin B = experiment: Aortic mural gene expression, RT-PCR (TLDA); type: in vivo, ApoE−/− mice; details: fold change over ApoE−/− control; aorta, 28 days Ang II infusion
Method: as §1, §2, §3, §4

MMP-12 = experiment: Aortic mural gene expression, RT-PCR (TLDA); type: in vivo, ApoE−/− mice; details: fold change over ApoE−/− control; aorta, 28 days Ang II infusion
Method: as §1, §2, §3, §4

MMP-8 = experiment: Aortic mural gene expression, RT-PCR (TLDA); type: in vivo, ApoE−/− mice; details: fold change over ApoE−/− control; aorta, 28 days Ang II infusion
Method: as §1, §2, §3, §4

CXCR4 = experiment: Aortic mural gene expression, RT-PCR (TLDA); type: in vivo, ApoE−/− mice; details: fold change over ApoE−/− control; aorta, 28 days Ang II infusion
Method: as §1, §2, §3, §4

Runx3 = experiment: Aortic mural gene expression, RT-PCR (TLDA); type: in vivo, ApoE−/− mice; details: fold change over ApoE−/− control; aorta, 28 days Ang II infusion
Method: as §1, §2, §3, §4

ITGB2 = experiment: Aortic mural gene expression, RT-PCR (TLDA); type: in vivo, ApoE−/− mice; details: fold change over ApoE−/− control; aorta, 28 days Ang II infusion
Method: as §1, §2, §3, §4

LOX = experiment: Aortic mural gene expression, RT-PCR (TLDA); type: in vivo, ApoE−/− mice; details: fold change over ApoE−/− control; aorta, 28 days Ang II infusion
Method: as §1, §2, §3, §4

Cybb = experiment: Aortic mural gene expression, RT-PCR (TLDA); type: in vivo, ApoE−/− mice; details: fold change over ApoE−/− control; aorta, 28 days Ang II infusion
Method: as §1, §2, §3, §4

TNF-α = experiment: Aortic mural gene expression, RT-PCR (TLDA); type: in vivo, ApoE−/− mice; details: fold change over ApoE−/− control; aorta, 28 days Ang II infusion
Method: as §1, §2, §3, §4

TIMP2 = experiment: Aortic mural gene expression, RT-PCR (TLDA); type: in vivo, ApoE−/− mice; details: fold change over ApoE−/− control; aorta, 28 days Ang II infusion
Method: as §1, §2, §3, §4

IL-7 = experiment: Aortic mural gene expression, RT-PCR (TLDA); type: in vivo, ApoE−/− mice; details: fold change over ApoE−/− control; aorta, 28 days Ang II infusion
Method: as §1, §2, §3, §4

CCR2 = experiment: Aortic mural gene expression, RT-PCR (TLDA); type: in vivo, ApoE−/− mice; details: fold change over ApoE−/− control; aorta, 28 days Ang II infusion
Method: as §1, §2, §3, §4

Osteopontin = experiment: Aortic mural gene expression, RT-PCR (TLDA); type: in vivo, ApoE−/− mice; details: fold change over ApoE−/− control; aorta, 28 days Ang II infusion
Method: as §1, §2, §3, §4

Rac2 = experiment: Aortic mural gene expression, RT-PCR (TLDA); type: in vivo, ApoE−/− mice; details: fold change over ApoE−/− control; aorta, 28 days Ang II infusion
Method: as §1, §2, §3, §4

Vav1 = experiment: Aortic mural gene expression, RT-PCR (TLDA); type: in vivo, ApoE−/− mice; details: fold change over ApoE−/− control; aorta, 28 days Ang II infusion
Method: as §1, §2, §3, §4

MAPK8 = experiment: Aortic mural gene expression, RT-PCR (TLDA); type: in vivo, ApoE−/− mice; details: fold change over ApoE−/− control; aorta, 28 days Ang II infusion
Method: as §1, §2, §3, §4

CCL2 = experiment: Aortic mural gene expression, RT-PCR (TLDA); type: in vivo, ApoE−/− mice; details: fold change over ApoE−/− control; aorta, 28 days Ang II infusion
Method: as §1, §2, §3, §4

Cathepsin S = experiment: Aortic mural gene expression, RT-PCR (TLDA); type: in vivo, ApoE−/− mice; details: fold change over ApoE−/− control; aorta, 28 days Ang II infusion
Method: as §1, §2, §3, §4

HMOX 1 = experiment: Aortic mural gene expression, RT-PCR (TLDA); type: in vivo, ApoE−/− mice; details: fold change over ApoE−/− control; aorta, 28 days Ang II infusion
Method: as §1, §2, §3, §4

ITGAL = experiment: Aortic mural gene expression, RT-PCR (TLDA); type: in vivo, ApoE−/− mice; details: fold change over ApoE−/− control; aorta, 28 days Ang II infusion
Method: as §1, §2, §3, §4

CCR5 = experiment: Aortic mural gene expression, RT-PCR (TLDA); type: in vivo, ApoE−/− mice; details: fold change over ApoE−/− control; aorta, 28 days Ang II infusion
Method: as §1, §2, §3, §4

Fibronectin -1 = experiment: Aortic mural gene expression, RT-PCR (TLDA); type: in vivo, ApoE−/− mice; details: fold change over ApoE−/− control; aorta, 28 days Ang II infusion
Method: as §1, §2, §3, §4

Tgfβ1 = experiment: Aortic mural gene expression, RT-PCR (TLDA); type: in vivo, ApoE−/− mice; details: fold change over ApoE−/− control; aorta, 28 days Ang II infusion
Method: as §1, §2, §3, §4

[4] = Plasma drug content by HPLC; type: in vivo, ApoE−/− mice; details: mouse plasma on day of sacrifice
Method: as §2

ACE = ACE (Homo sapiens, UniProt P12821); details: in vitro; cited from earlier work
Chain of ACE (P12821 30-1306, species assumed): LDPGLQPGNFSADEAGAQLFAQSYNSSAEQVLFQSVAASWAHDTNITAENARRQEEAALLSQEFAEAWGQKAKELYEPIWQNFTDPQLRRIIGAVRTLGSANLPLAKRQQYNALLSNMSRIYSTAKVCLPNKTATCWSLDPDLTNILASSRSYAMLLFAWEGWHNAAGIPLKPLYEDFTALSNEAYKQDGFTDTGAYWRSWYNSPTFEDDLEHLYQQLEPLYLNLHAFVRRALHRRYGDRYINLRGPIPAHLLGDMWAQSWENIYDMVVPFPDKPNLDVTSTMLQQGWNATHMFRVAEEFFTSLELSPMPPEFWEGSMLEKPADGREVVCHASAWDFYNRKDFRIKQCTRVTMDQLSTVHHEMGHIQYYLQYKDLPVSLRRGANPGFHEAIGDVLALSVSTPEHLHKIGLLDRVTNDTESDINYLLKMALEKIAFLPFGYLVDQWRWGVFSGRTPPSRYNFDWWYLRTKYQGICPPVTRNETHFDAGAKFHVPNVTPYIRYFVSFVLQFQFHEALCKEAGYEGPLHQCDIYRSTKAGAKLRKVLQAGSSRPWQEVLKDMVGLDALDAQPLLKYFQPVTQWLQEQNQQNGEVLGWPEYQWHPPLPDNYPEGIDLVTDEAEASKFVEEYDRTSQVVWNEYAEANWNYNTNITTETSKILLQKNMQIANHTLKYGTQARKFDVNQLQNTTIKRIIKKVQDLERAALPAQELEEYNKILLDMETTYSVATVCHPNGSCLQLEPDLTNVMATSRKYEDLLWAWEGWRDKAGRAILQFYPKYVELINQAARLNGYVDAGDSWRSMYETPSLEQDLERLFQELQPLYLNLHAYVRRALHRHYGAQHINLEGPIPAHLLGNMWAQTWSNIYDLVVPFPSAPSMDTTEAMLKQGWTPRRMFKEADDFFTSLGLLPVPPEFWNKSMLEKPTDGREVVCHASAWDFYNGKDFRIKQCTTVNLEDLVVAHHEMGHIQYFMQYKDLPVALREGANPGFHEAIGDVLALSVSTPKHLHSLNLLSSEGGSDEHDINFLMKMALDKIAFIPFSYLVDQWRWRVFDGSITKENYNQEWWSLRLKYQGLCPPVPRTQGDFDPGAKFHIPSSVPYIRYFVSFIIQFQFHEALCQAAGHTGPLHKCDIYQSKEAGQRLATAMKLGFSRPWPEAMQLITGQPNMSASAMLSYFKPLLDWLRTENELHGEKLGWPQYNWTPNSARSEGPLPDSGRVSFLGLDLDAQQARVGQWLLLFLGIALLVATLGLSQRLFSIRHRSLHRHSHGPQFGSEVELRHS

Structure (SMILES): COCCCOc1cc(C[C@@H](C[C@H](N)[C@@H](O)C[C@H](C(=O)NCC(C)(C)C(N)=O)C(C)C)C(C)C)ccc1OC [Aliskiren]
- Half-life in the plasma ([1]; in vivo): approximately 24 hours
- Water solubility [2]: good water solubility

Structure (SMILES): CCCCC1=NC2(CCCC2)C(=O)N1Cc1ccc(-c2ccccc2-c2nnn[nH]2)cc1 [Irbesartan]
- Down-regulation of genes involved in the pathophysiology of AAA ([3]; ApoE−/− + Ang II AAA model, summary of Table 2): down-regulating the expression of genes
- Total Score ([3]; sum of heat map grades over 25 genes, ApoE−/− + Ang II group scored 55): 7
- Inhibition of aneurysm development (aneurysm incidence) (aneurysm): effective in inhibiting aneurysm development; also recorded: inhibited aneurysm development well
- Inhibition of aneurysm development/growth (aortic diameter) (AAA): effective in inhibiting/preventing aneurysm development
- Cathepsin B expression (Cathepsin B): − (0 to 1 = −)
- MMP-12 expression (MMP-12): +++ (3.1 to 10 = +++)
- MMP-8 expression (MMP-8): ++ (1.51 to 3 = ++)
- CXCR4 expression (CXCR4): − (0 to 1 = −)
- Runx3 expression (Runx3): − (0 to 1 = −)
- ITGB2 expression (ITGB2): − (0 to 1 = −)
- LOX expression (LOX): − (0 to 1 = −)
- Cybb expression (Cybb): − (0 to 1 = −)
- TNF-α expression (TNF-α): − (0 to 1 = −)
- TIMP2 expression (TIMP2): − (0 to 1 = −)
- IL-7 expression (IL-7): − (0 to 1 = −)
- CCR2 expression (CCR2): − (0 to 1 = −)
- Osteopontin expression (Osteopontin): ++ (1.51 to 3 = ++)
- Rac2 expression (Rac2): − (0 to 1 = −)
- Vav1 expression (Vav1): − (0 to 1 = −)
- MAPK8 expression (MAPK8): − (0 to 1 = −)
- CCL2 expression (CCL2): − (0 to 1 = −)
- Cathepsin S expression (Cathepsin S): − (0 to 1 = −)
- HMOX 1 expression (HMOX 1): − (0 to 1 = −)
- ITGAL expression (ITGAL): − (0 to 1 = −)
- CCR5 expression (CCR5): − (0 to 1 = −)
- Fibronectin -1 expression (Fibronectin -1): − (0 to 1 = −)
- Tgfβ1 expression (Tgfβ1): − (0 to 1 = −)
- Plasma drug content [4]: lower plasma concentration

Structure (SMILES): NCCCC[C@H](N[C@@H](CCc1ccccc1)C(=O)O)C(=O)N1CCC[C@H]1C(=O)O [Lisinopril, lisinopril]
- Time to peak concentrations in the plasma ([1]; after oral administration): about 7 hours
- ACE inhibitor potency (in words) (ACE): slightly more potent ACE inhibitor than is enalaprilat

Structure (SMILES): CCC(=O)O[C@@H](O[P@](=O)(CCCCc1ccccc1)CC(=O)N1C[C@H](C2CCCCC2)C[C@H]1C(=O)O)C(C)C [fosinopril]
- Route of clearance/elimination ([1]; in vivo): balanced elimination by the liver and kidneys

Structure (SMILES): C[C@H](CS)C(=O)N1CCC[C@H]1C(=O)O [Captopril, captopril]
- Bioavailability ([1]; given orally): about 75%
